Source: US20090099095A1, “Novel neuroprotective peptide” (priority 2007, published 2009)

Tests used:
[1] = tested on: cells in the dentate gyrus of OHSCs; assay: Immunofluorescence count of dentate gyrus cells double-labelled for PI and DCX or NeuN after NMDA; assay type: cell-based, rat
Experimental: To determine the cell types which were protected by pentinin, we fixed OHSCs and performed immunofluorescence for markers of neuronally committed progenitors (DCX) and neurons (NeuN). Cells in the dentate gyrus were counted, and the percentage of cells double-labelled for PI and each marker was determined.
To characterise cell death, OHSCs were cultured in N2 medium with different concentrations of NMDA (in the presence of PI). After 24 h, OHSCs were washed in PBS and fixed in 4% paraformaldehyde (overnight, 4° C.). OHSCs were blocked and permeabilised by incubation for two hours in PTS (0.1M sodium phosphate buffer, 0.3% triton X-100 and 1% donkey serum (Jackson Immunoresearch Laboratories Inc., West Grove, Pa.)) at room temperature (RT), then incubated overnight (rocking, 4° C.) with mouse anti-NeuN antibody (1:500, Chemicon International Inc, Temecula, Calif.), rabbit anti-Caspase3A antibody (1:250, Cell Signalling Technology), and goat anti doublecortin antibody (Dcx, 1:400, Santa Cruz Biotechnology, Santa Cruz, USA). After thorough washing (3×30 mins in PTS, rocking), OHSCs were incubated overnight (rocking, 4° C.) with donkey anti-mouse Alexa 647-conjugated antibody (1:800, Molecular Probes, Leiden, Netherlands), donkey anti-rabbit Alexa 488-conjugated antibody (1:800, Molecular Probes) and donkey anti-goat Alexa 488-conjugated antibody (1:800, Molecular Probes). OHSCs were washed thoroughly and mounted in Prolong Gold mounting medium (Molecular Probes). Colocalisation of PI and/or Caspase3A staining with NeuN and Dcx immunofluorescence was determined by confocal microscopy (Leica TCS SP2, Leica Microsystems AG, Wetzlar, Germany).

[2] = tested on: organotypic hippocampal slice cultures (OHSCs); assay: NMDA-induced excitotoxicity in organotypic hippocampal slice cultures, propidium iodide (PI) uptake; assay type: cell-based, rat
Experimental: To test the neuroprotective qualities of test media, OHSCs were first preincubated with PI for 24 hours. Fluorescent photomicrographs were taken, and used to determine the level of background staining. OHSCs were then transferred to test media one hour before 10 μM NMDA was added. Photomicrographs were taken again after 24 hours of NMDA exposure, and the change in PI staining intensity was quantified.
Rat organotypic hippocampal slice cultures (400 μm thick) were prepared from P9 Sprague-Dawley rats, using the method of Stoppini and coworkers^9. OHSCs were cultured in slice medium (50% BME, 25% EBSS, 23% horse serum, 7.5 mg/ml D-glucose, 1 mM L-glutamine and 25 U/ml PEST) for 12-14 days before experiments commenced.
OHSCs were transferred to test media one hour before exposure to 10 μM NMDA for 24 h. The degree of NMDA-induced excitotoxicity was determined by comparing propidium iodide (PI) uptake prior to exposure with that following exposure. Pictures were captured using a digital camera (Olympus DP50) coupled to an inverted fluorescence microscope (Olympus IX70), equipped with a red long-pass WG fluorescence filter. Uptake of PI was quantified as the mean pixel intensity of epifluorescence, over the whole slice, or in defined sub-regions (ImageJ v1.29x).

[3] = tested on: organotypic hippocampal slice cultures (OHSCs); conditions: high doses, literature ref 10; cited from earlier work

Molecule	reduction of percentage of immature neuronal marker (DCX) cells co-labelled with PI ([1]; 100 pM pentinin) [%]	reduction of percentage of mature neuronal marker (NeuN) cells co-labelled with PI ([1]; 100 pM pentinin) [%]	number of neurons killed by NMDA-induced toxicity ([1]; 100 pM synthetic pentinin)	effect on excitotoxicity induced by NMDA ([2]; 100 μM peptide in unconditioned medium)	effective dose in dose response assay ([2]; synthetic peptide added to unconditioned medium, results not shown) [µM]	effect on NMDA-induced excitotoxicity / PI staining (in words) ([2]; whole slice, 10 μM NMDA 24 h, GDNF at 1 ng/ml where added)	doses at which neuroprotective in OHSCs [3] [ng/mL]
tyr, thr, pro, lys, thr (YTPKT; Human) [pentinin, pentameric peptide fragment corresponding to residues 26-30 of the insulin B chain]	86	64	markedly reduced	reduce excitotoxicity	100	–	–
glial-derived neurotrophic factor (protein, UniProt P39905 78-211, looked up, recombinant protein added to control medium at 1 ng/ml) Glial cell line-derived …: SPDKQMAVLPRRERNRQAAAANPENSRGKGRRGQRGKNRGCVLTAIHLNVTDLGLGYETKEELIFRYCSGSCDAAETTYDKILKNLSRNRRLVSDKVGQACCRPIAFDDDLSFLDDNLVYHILRKHSAKRCGCI	–	–	–	–	–	did not reduce excitotoxicity	50 to 100
